# Experimental data from US11464785B2, “Treatment of addiction and impulse-control disorders using PDE7 inhibitors” (priority 2010, dated 2022).
# How the values were obtained:
# [1] = system: rat model of cocaine addiction
# Method: Cocaine hydrochloride (obtained from the National Institute on Drug Abuse, Bethesda, Md.) was dissolved in sterile physiological saline at a concentration of 0.25 mg/0.1 mL. Drug or vehicle solution was infused at a volume of 0.1 mL over 4 seconds. […] OMS182401 was given intraperitoneally.
# Male Wistar rats weighing between 180 and 200 g at the time of arrival in the lab were used. The rats were housed in groups of three in a humidity—(45-55%) and temperature-controlled (22 degrees C.) vivarium on a 12 h: 12 h reverse light/dark cycle (on, 17:00; off, 05:00) with ad libitum access to food and water. Experiments were conducted during the dark phase of the light/dark cycle. One week after arrival, rats were subjected to surgery, and a silastic catheter was implanted into the right jugular vein. The experimental stations consisted of operant conditioning chambers (Med Associate Inc.) enclosed in sound-attenuating, ventilated environmental cubicles. Cocaine was delivered by a plastic tube connected to the catheter before the beginning of the session. […] An IBM-compatible computer controlled the delivery of fluids and recording of the behavioral data.
# Cocaine self-administration training continued until a stable baseline of responding was reached (less than 10% variation for 3 consecutive days calculated for each single rat). At this point, drug testing began.
# Rats were treated with PDE7 inhibitors (0.0, 0.3, 1.0 and 3.0 mg/kg) given i.p. 12 hours and 1 hour before the beginning of the self-administration session. […] A 3-day interval was allowed between drug testing. During these intervals, cocaine self-administration was continued to re-establish baseline lever responses.
# Cocaine self-administration training continued until a stable baseline of responding was reached (less than 10% variation for 3 consecutive days calculated for each single rat). At this point, drug testing began. The animals were injected with vehicle or drug 15 minutes before the test session.
# In order to test the effect of raising cAMP levels through activation of DRD1 on cocaine self-administration, the DRD1 agonist SKF82958 was administered i.p. to rats trained to self-administer cocaine. […] SKF82958 was administered at 1.0 mg/kg. […] The long-access model was not evaluated in this case.
# Rats were surgically implanted with jugular catheters and allowed to recover for one week. Animals then underwent daily six-hour (long-access) training sessions in which each press of the active lever triggered delivery of 0.25 mg cocaine. After one week, the ratio was increased so that five lever presses were required to receive the same amount of cocaine. The animal training continued for about six weeks. […] Reinforced responses were assessed over two hour periods.
# dopaminergic VTA neurons = experiment: Whole-cell current clamp recordings from rat VTA horizontal slices; format: cell-based
# Description: The reinforcing effects of nicotine are believed to result from its activation of dopaminergic neurons in the ventral tegmental area (VTA) (Pidoplichko V I et al., Nature 390:401-404 (1997); Liu L, et al., Nicotine persistently activates ventral tegmental area dopaminergic neurons via nicotinic acetylcholine receptors containing α4 and α6 subunits. Mol Pharmacol, 81(4):541-8 (2012)). The inventors sought to evaluate the anti-addictive potential of PDE7 inhibitors by studying their ability to modify basal and drug of abuse-induced changes in VTA dopamine activity by performing whole-cell current clamp recordings from rat VTA horizontal slices ex vivo. For this purpose nicotine was used as an example of drugs of abuse.
# Dopaminergic neurons were identified by the presence of a large hyperpolarizing current. Johnson, S. W., et al., “Opioids excite dopamine neurons by hyperpolarization of local interneurons,”J. Neurosci 12:483-488 (1992).
# An additional electrophysiology study was completed to evaluate the effect of the PDE7 inhibitor OMS182399 on VTA DA neuronal activity in the setting of cocaine, morphine or alcohol. The preparation of VTA slices was as described above in Example 8.
# Drug-induced changes in firing rate were calculated by averaging the effects after drug administration (five minutes) and normalizing to the pre-drug baseline. All the numerical data are given as mean±s.e.m. Data were compared and analyzed by utilizing two-way ANOVA for repeated measures (treatment×time), or Student's t-test for repeated measures, when appropriate. Statistical analysis was performed by means of the GraphPad Prism program. The significance level was established at P<0.05.
# The acute effect of OMS182399 was investigated on dopamine neurons of the VTA in a rat horizontal brain slice preparation containing the midbrain. Whole-cell current-clamp recordings were performed from VTA dopamine neurons.
# [2] = system: rat model of cocaine addiction; details: in vivo
# [3] = system: rat model of cocaine addiction; format: in vivo, rats
# Method: PDE7 inhibitors and DRD1 agonists were next tested for their effect on cocaine priming-induced relapse. Rats were trained to self-administer cocaine, as above, and were then exposed to extinction conditions. Cocaine was replaced with saline solution. […] Rats were treated with vehicle or agent and ten minutes later were administered cocaine. Lever pressing was counted for one hour following cocaine administration. […] Once again, administration of PDE7 inhibitors and dopamine D1 agonist had very different results in cocaine addicted animals.
# open field activity = experiment: Open field activity model; format: in vivo, wild type C57BL/6 mice; details: C57BL/6 mice; SKF82958 1 mg/kg; FIG. 36
# Method: In order to assess the ability of PDE7 inhibitors to enhance DRD1 signaling in vivo, the effects of the PDE7 inhibitor OMS182401 and the DRD1 agonist SKF82958, alone and in combination, were evaluated in an open field activity model using wild type C57BL/6 mice.
# binge eating model = experiment: Stress-induced binge eating of highly palatable food (HPF); format: in vivo, female rats; details: topiramate 60 mg/kg i.p.
# Description: To mimic binge eating disorder in laboratory animals, a binge eating model was developed where binge eating is elicited by yo-yo dieting and stressful exposure to Highly Palatable Food (HPF). In this model, female rats are exposed to repeated cycles of restriction and a stressful procedure characterized by exposure of animals to HPF without the possibility of accessing it. This procedure elicits a selective increase of highly palatable food intake that is overconsumed during a very short period of time. As described below, using this model, endowed with significant predictive and face validity, the effect of PDE7 inhibitors on binge eating (one of the most significant forms of food addiction) was investigated.
# Reinstatement of binge eating behavior has been obtained in experimental animals through a combination of repeated food restriction and stress. [Cifani et al, Psychopharmacology 204:113-125 (2009)]. For the present invention, stress-induced binge eating was tested as in Cifani.
# Rats were housed in individual cages and were given chow and water ad libitum for two weeks prior to the experiment. […]
# After one hour, animals were given HPF and ad libitum chow. Intake of HPF was measured after two hours.
# [4] = system: dopamine release in the nucleus accumbens; experiment: In vivo microdialysis of dopamine release in the nucleus accumbens; design: species or system Male Wistar rats; details: nicotine 0.4 mg/kg sc
# Method: Male Wistar rats (Harlan, Italy) weighing 275-300 g were housed in groups of six per cage with standard food (Morini, Italy) and water ad libitum, for at least five days in the central animal room under constant temperature (23° C.), humidity (60%) and a 12 hour light/dark cycle (light from 8 a.m. to 8 p.m.).
# Concentric dialysis probes with a dialysing portion of 1.5 mm were prepared with AN69 (acrylonitrile sodium methallyl sulfonate copolymer) dialysis fiber (310 μm o.d. 220 μm i.d. Hospal, Dasco, Italy), according to the method of De Luca et al. (2007). Rats were anaesthetized with chloral hydrate (400 mg/kg i.p.) and placed in a stereotaxic apparatus. The scalp was incised and the skull leveled between lambda and bregma. […] Samples from each of the NAc shell and core were taken every 10 or 20 minutes (depending on the experiments) and analyzed.
# Dialysate samples (10 or 20 μl) were injected into an HPLC equipped with a reverse phase column (C8 3.5 um, Waters, Mildford, Mass., USA) and a coulometric detector (ESA, Coulochem II, Bedford, Mass.) to quantify DA. […]
# NAc shell and core dialysate DA was monitored for at least three hours. […] Dialysate DA was monitored for at least three hours after nicotine treatment.
compound,measurement,setting,value
"Br.C=CCN1CCc2c(cc(O)c(O)c2Cl)C(c2ccccc2)C1 (racemic) [SKF82958, (±)-6-Chloro-7,8-dihydroxy-3-allyl-1-phenyl-2,3,4,5-tetrahydro-1H-3-benzazepine hydrobromide]",behavior of animals given the agent with cocaine,"[1]; rat, in vivo, ip",exhibited significantly abnormal behavior and were extremely aggressive
same,"cocaine self-administration, short-access model","[1]; rats, 2-hour sessions, OMS182401 15 minutes before session (FIG. 3), SKF82958 1.0 mg/kg i.p. (FIG. 4)",significantly reduced cocaine self-administration in the short-access model
same,"cocaine self-administration, first hour after treatment","[1]; rats, short-access, i.p.",a significant reduction in self-administration was observed at both doses
same,"cocaine self-administration, two hours after treatment","[1]; rats, short-access, i.p.",the trend of self-administration reduction was non-significant
same,"nicotine-induced activation of VTA neurons, single agents at low concentration",dopaminergic VTA neurons; 30 nM OMS182401 alone or 1 uM SKF82958 alone,ineffective
same,spontaneous firing rate of dopaminergic VTA neurons,"dopaminergic VTA neurons; OMS182401, SKF82958 at 3.0 and 10.0 uM, FIG. 29A",a similar effect was observed
same,lever pressing when administered on its own (addictive properties),[2],Neither agent caused increased lever pressing
same,behavior of treated animals in cocaine priming test,"[3]; rat, in vivo",exhibited significantly abnormal behavior
same,cocaine priming-induced lever pressing,"[3]; rats, agent ten minutes before cocaine, lever pressing for one hour, FIGS. 13 and 14",significantly reduced lever pressing induced by cocaine priming
same,"open-field activity, single agents",open field activity,stimulated open-field activity at 1 mg/kg
CCO [Ethanol],firing rate of VTA DA cells,"dopaminergic VTA neurons; Ethanol 100 mM, 5 min, n=6",158.3±26.7 % of basal firing rate
CC1(C)O[C@@H]2[C@@H](CO[C@@]3(COS(N)(=O)=O)OC(C)(C)O[C@@H]23)O1 [Topiramate],"times of observation at which HPF intake was reduced, R+S group, highest dose","binge eating model; OMS182056 3 mg/kg i.p., p<0.05",evident at all the times of observation
same,"HPF intake, restricted and stressed (R+S) group","binge eating model; rats, two hours, OMS182401 3.0 mg/kg i.p., OMS182056 1.0 and 3.0 mg/kg i.p., FIGS. 23D, 24D, 25D",reduced HPF intake only in the R+S group
COC(=O)[C@H]1[C@@H](OC(=O)c2ccccc2)C[C@@H]2CC[C@H]1N2C [cocaine],firing rate of VTA DA cells,"dopaminergic VTA neurons; cocaine 1 μM, 5 min, n=7",36.4±9.1 % of basal firing rate
CN1CC[C@]23c4c5ccc(O)c4O[C@H]2[C@@H](O)C=C[C@H]3[C@H]1C5 [morphine],firing rate of VTA DA cells,"dopaminergic VTA neurons; morphine, 3 min, n=7",224.4±19.5 % of basal firing rate
CN1CCC[C@H]1c1cccnc1 [nicotine],DA release in the NAc shell,[4],increases DA release in the NAc shell
